Assay results reported in US12692269B2, “Therapeutic compounds” (Genentech, Inc., priority 2019, dated 2026).
One block for each compound: values may come before it.

Key:
Type in all cases: binding
[1] = target: TEAD3 TAZ (amino acids 13-57) (Homo sapiens, UniProt Q99594); test: TEAD3-TAZ HTRF (TR-FRET) protein-protein interaction assay; conditions: for TEAD3 TAZ HTRF combined: Max % Inhibition: TEAD3, TAZ peptide; for EC50: TEAD3-TAZ HTRF, TR-FRET 665 nm/615 nm, read-out: TEAD3 TAZ HTRF combined: EC50
Procedure, shortened: (§1)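 Compounds were given 30 min to bind Eu anti-His-labelled TEAD (His-tagged, aa 217-447) before streptavidin-XL665-coupled biotin-YAP 50-100 or biotin-TAZ 13-57 peptide went in for a further 60 min at room temperature. Loss of 665/615 nm TR-FRET ratio gave IC50/EC50 via four-parameter curve fit.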

[2] = target: TEAD1 TAZ (amino acids 13-57) (Homo sapiens, UniProt P28347); test: TEAD1-TAZ HTRF (TR-FRET) protein-protein interaction assay; conditions: for TEAD1 TAZ HTRF combined: Max % Inhibition: TEAD1, TAZ peptide; for EC50: TEAD1-TAZ HTRF, TR-FRET 665 nm/615 nm, read-out: TEAD1 TAZ HTRF combined: EC50
Procedure, shortened: as §1

[3] = target: TEAD2 TAZ (amino acids 13-57) (Homo sapiens, UniProt Q15562); test: TEAD2-TAZ HTRF (TR-FRET) protein-protein interaction assay; conditions: for TEAD2 TAZ HTRF combined: Max % Inhibition: TEAD2, TAZ peptide; for EC50: TEAD2-TAZ HTRF, TR-FRET 665 nm/615 nm, read-out: TEAD2 TAZ HTRF combined: EC50
Procedure, shortened: as §1

TEAD2 YAP50-100 = TEAD2 YAP50-100 (Homo sapiens, UniProt Q15562); test: TEAD2-YAP HTRF (TR-FRET) protein-protein interaction assay; conditions: TEAD2, YAP peptide 50-100, HTRF; for EC50: read-out: TEAD2 YAP50-100 HTRF combined: EC50
Procedure, shortened: as §1

TEAD3 YAP50-100 = TEAD3 YAP50-100 (Homo sapiens, UniProt Q99594); test: TEAD3-YAP HTRF (TR-FRET) protein-protein interaction assay; conditions: TEAD3, YAP peptide 50-100, HTRF; for EC50: read-out: TEAD3 YAP50-100 HTRF combined: EC50
Procedure, shortened: as §1

TEAD1 YAP50-100 = TEAD1 YAP50-100 (Homo sapiens, UniProt P28347); test: TEAD1-YAP HTRF (TR-FRET) protein-protein interaction assay; conditions: TEAD1, YAP peptide 50-100, HTRF; for EC50: read-out: TEAD1 YAP50-100 HTRF combined: EC50
Procedure, shortened: as §1

TEAD4 YAP50-100 = TEAD4 YAP50-100 (Homo sapiens, UniProt Q15561); test: TEAD4-YAP HTRF (TR-FRET) protein-protein interaction assay; conditions: TEAD4, YAP peptide 50-100, HTRF; for EC50: read-out: TEAD4 YAP50-100 HTRF combined: EC50
Procedure, shortened: as §1

[4] = target: TEAD4 TAZ (amino acids 13-57) (Homo sapiens, UniProt Q15561); test: TEAD4-TAZ HTRF (TR-FRET) protein-protein interaction assay; conditions: for TEAD4 TAZ HTRF combined: Max % Inhibition: TEAD4, TAZ peptide; for EC50: TEAD4-TAZ HTRF, TR-FRET 665 nm/615 nm, read-out: TEAD4 TAZ HTRF combined: EC50
Procedure, shortened: as §1

Chain of TEAD2 YAP50-100 (Q15562 217-447): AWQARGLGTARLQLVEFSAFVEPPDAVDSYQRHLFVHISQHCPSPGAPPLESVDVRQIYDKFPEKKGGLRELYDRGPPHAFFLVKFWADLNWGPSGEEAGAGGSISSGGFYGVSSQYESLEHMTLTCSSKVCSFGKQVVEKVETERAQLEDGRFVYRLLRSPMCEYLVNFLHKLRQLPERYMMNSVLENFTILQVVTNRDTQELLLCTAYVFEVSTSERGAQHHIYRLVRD
Chain of TEAD2 TAZ (amino acids 13-57) (Q15562 217-447): as above
Chain of TEAD4 YAP50-100 (Q15561 217-434 limits assumed): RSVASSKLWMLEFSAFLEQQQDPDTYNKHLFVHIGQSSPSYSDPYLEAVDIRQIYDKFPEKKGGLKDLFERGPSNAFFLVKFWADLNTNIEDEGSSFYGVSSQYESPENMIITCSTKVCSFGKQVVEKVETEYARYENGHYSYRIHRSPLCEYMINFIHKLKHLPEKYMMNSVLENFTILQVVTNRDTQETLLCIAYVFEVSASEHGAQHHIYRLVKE
Chain of TEAD4 TAZ (amino acids 13-57) (Q15561 217-434 limits assumed): as above
Chain of TEAD1 YAP50-100 (P28347 167-426 limits assumed): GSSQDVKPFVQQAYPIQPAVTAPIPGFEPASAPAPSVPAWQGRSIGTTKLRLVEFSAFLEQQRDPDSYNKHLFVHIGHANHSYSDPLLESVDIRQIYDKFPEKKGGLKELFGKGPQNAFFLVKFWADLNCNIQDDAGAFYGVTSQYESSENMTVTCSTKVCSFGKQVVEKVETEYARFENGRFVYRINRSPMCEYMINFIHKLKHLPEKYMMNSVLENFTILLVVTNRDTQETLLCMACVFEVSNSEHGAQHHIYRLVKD
Chain of TEAD1 TAZ (amino acids 13-57) (P28347 167-426 limits assumed): as above
Chain of TEAD3 YAP50-100 (Q99594 173-435 limits assumed): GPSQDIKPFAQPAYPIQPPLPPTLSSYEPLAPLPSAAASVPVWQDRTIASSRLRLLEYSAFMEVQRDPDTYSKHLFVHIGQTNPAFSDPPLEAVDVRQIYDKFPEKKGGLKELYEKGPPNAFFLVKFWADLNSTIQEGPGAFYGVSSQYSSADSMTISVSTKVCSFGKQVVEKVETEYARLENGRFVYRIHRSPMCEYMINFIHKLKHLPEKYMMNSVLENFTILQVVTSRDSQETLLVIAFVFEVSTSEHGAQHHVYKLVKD
Chain of TEAD3 TAZ (amino acids 13-57) (Q99594 173-435 limits assumed): as above

SMILES: CC(C)c1ccnc(-c2nn3c(=O)cc(-c4ccc(C5CCCCC5)cc4)[nH]c3c2C(=O)N2CC(CF)C2)n1 [Compound 10, 5-(4-Cyclohexylphenyl)-3-(3-(fluoromethyl)azetidine-1-carbonyl)-2-(4-isopropylpyrimidin-2-yl)pyrazolo[1,5-a]pyrimidin-7(4H)-one]
TEAD3 TAZ HTRF combined: Max % Inhibition [1]: 61.5% | EC50 [1]: 140 nM | TEAD1 TAZ HTRF combined: Max % Inhibition [2]: 72.0% | EC50 [2]: 60 nM | TEAD2 TAZ HTRF combined: Max % Inhibition [3]: 65.0% | EC50 [3]: 10 nM | TEAD2 YAP50-100 HTRF combined: Max % Inhibition (TEAD2 YAP50-100): 67.0% | EC50 (TEAD2 YAP50-100): 10 nM | TEAD3 YAP50-100 HTRF combined: Max % Inhibition (TEAD3 YAP50-100): 70.5% | EC50 (TEAD3 YAP50-100): 120 nM | TEAD1 YAP50-100 HTRF combined: Max % Inhibition (TEAD1 YAP50-100): 77.0% | EC50 (TEAD1 YAP50-100): 60 nM | TEAD4 YAP50-100 HTRF combined: Max % Inhibition (TEAD4 YAP50-100): 60.5% | EC50 (TEAD4 YAP50-100): 670 nM | TEAD4 TAZ HTRF combined: Max % Inhibition [4]: 62.0% | EC50 [4]: 540 nM

SMILES: O=C(c1c(-c2nccc(C(F)(F)F)n2)nn2c(=O)cc(-c3ccc(C4CCCCC4)cc3)[nH]c12)N1CC(CF)C1 [Compound 11, 5-(4-Cyclohexylphenyl)-3-(3-(fluoromethyl)azetidine-1-carbonyl)-2-(4-(trifluoromethyl)pyrimidin-2-yl)pyrazolo[1,5-a]pyrimidin-7(4H)-one]
TEAD3 TAZ HTRF combined: Max % Inhibition [1]: 61.0% | EC50 [1]: 120 nM | TEAD1 TAZ HTRF combined: Max % Inhibition [2]: 69.0% | EC50 [2]: 70 nM | TEAD2 TAZ HTRF combined: Max % Inhibition [3]: 63.0% | EC50 [3]: 20 nM | TEAD2 YAP50-100 HTRF combined: Max % Inhibition (TEAD2 YAP50-100): 63.5% | EC50 (TEAD2 YAP50-100): 20 nM | TEAD3 YAP50-100 HTRF combined: Max % Inhibition (TEAD3 YAP50-100): 68.5% | EC50 (TEAD3 YAP50-100): 120 nM | TEAD1 YAP50-100 HTRF combined: Max % Inhibition (TEAD1 YAP50-100): 74.0% | EC50 (TEAD1 YAP50-100): 70 nM | TEAD4 YAP50-100 HTRF combined: Max % Inhibition (TEAD4 YAP50-100): 48.0% | EC50 (TEAD4 YAP50-100): 1050 nM | TEAD4 TAZ HTRF combined: Max % Inhibition [4]: 48.5% | EC50 [4]: 860 nM

SMILES: CCc1ccnc(-c2nn3c(=O)cc(-c4ccc(C5CCCCC5)cc4)[nH]c3c2C(=O)N2CC(CF)C2)n1 [Compound 12, 5-(4-Cyclohexylphenyl)-2-(4-ethylpyrimidin-2-yl)-3-(3-(fluoromethyl)azetidine-1-carbonyl)pyrazolo[1,5-a]pyrimidin-7(4H)-one]
TEAD3 TAZ HTRF combined: Max % Inhibition [1]: 56.0% | EC50 [1]: 240 nM | TEAD1 TAZ HTRF combined: Max % Inhibition [2]: 67.5% | EC50 [2]: 110 nM | TEAD2 TAZ HTRF combined: Max % Inhibition [3]: 64.5% | EC50 [3]: 20 nM | TEAD2 YAP50-100 HTRF combined: Max % Inhibition (TEAD2 YAP50-100): 69.0% | EC50 (TEAD2 YAP50-100): 20 nM | TEAD3 YAP50-100 HTRF combined: Max % Inhibition (TEAD3 YAP50-100): 66.0% | EC50 (TEAD3 YAP50-100): 190 nM | TEAD1 YAP50-100 HTRF combined: Max % Inhibition (TEAD1 YAP50-100): 72.0% | EC50 (TEAD1 YAP50-100): 140 nM | TEAD4 YAP50-100 HTRF combined: Max % Inhibition (TEAD4 YAP50-100): 55.0% | EC50 (TEAD4 YAP50-100): 200 nM | TEAD4 TAZ HTRF combined: Max % Inhibition [4]: 58.0% | EC50 [4]: 180 nM

SMILES: COc1nccnc1-c1nn2c(=O)cc(-c3ccc(C4CCCCC4)cc3)[nH]c2c1C(=O)N1CC(CF)C1 [Compound 13, 5-(4-Cyclohexylphenyl)-3-(3-(fluoromethyl)azetidine-1-carbonyl)-2-(3-methoxypyrazin-2-yl)pyrazolo[1,5-a]pyrimidin-7(4H)-one]
TEAD3 TAZ HTRF combined: Max % Inhibition [1]: 56.5% | EC50 [1]: 180 nM | TEAD1 TAZ HTRF combined: Max % Inhibition [2]: 66.5% | EC50 [2]: 100 nM | TEAD2 TAZ HTRF combined: Max % Inhibition [3]: 60.0% | EC50 [3]: 20 nM | TEAD2 YAP50-100 HTRF combined: Max % Inhibition (TEAD2 YAP50-100): 65.0% | EC50 (TEAD2 YAP50-100): 20 nM | TEAD3 YAP50-100 HTRF combined: Max % Inhibition (TEAD3 YAP50-100): 71.5% | EC50 (TEAD3 YAP50-100): 180 nM | TEAD1 YAP50-100 HTRF combined: Max % Inhibition (TEAD1 YAP50-100): 74.0% | EC50 (TEAD1 YAP50-100): 80 nM | TEAD4 YAP50-100 HTRF combined: Max % Inhibition (TEAD4 YAP50-100): 50.0% | EC50 (TEAD4 YAP50-100): 210 nM | TEAD4 TAZ HTRF combined: Max % Inhibition [4]: 40.0% | EC50 [4]: 130 nM

SMILES: O=C(c1c(-c2ncccn2)nn2c(=O)cc(-c3ccc(C4CCCCC4)cc3)[nH]c12)N1CC(CF)C1 [Compound 15, 5-(4-Cyclohexylphenyl)-3-(3-(fluoromethyl)azetidine-1-carbonyl)-2-(pyrimidin-2-yl)pyrazolo[1,5-a]pyrimidin-7(4H)-one]
TEAD3 TAZ HTRF combined: Max % Inhibition [1]: 55.8% | EC50 [1]: 70 nM | TEAD1 TAZ HTRF combined: Max % Inhibition [2]: 64.0% | EC50 [2]: 40 nM | TEAD2 TAZ HTRF combined: Max % Inhibition [3]: 62.0% | EC50 [3]: 10 nM | TEAD2 YAP50-100 HTRF combined: Max % Inhibition (TEAD2 YAP50-100): 64.8% | EC50 (TEAD2 YAP50-100): 10 nM | TEAD3 YAP50-100 HTRF combined: Max % Inhibition (TEAD3 YAP50-100): 64.0% | EC50 (TEAD3 YAP50-100): 70 nM | TEAD1 YAP50-100 HTRF combined: Max % Inhibition (TEAD1 YAP50-100): 74.0% | EC50 (TEAD1 YAP50-100): 30 nM | TEAD4 YAP50-100 HTRF combined: Max % Inhibition (TEAD4 YAP50-100): 50.5% | EC50 (TEAD4 YAP50-100): 30 nM | TEAD4 TAZ HTRF combined: Max % Inhibition [4]: 49.0% | EC50 [4]: 20 nM

Continued, values first:

TEAD3 TAZ HTRF combined: Max % Inhibition [1]: 52.5% | EC50 [1]: 90 nM | TEAD1 TAZ HTRF combined: Max % Inhibition [2]: 69.5% | EC50 [2]: 40 nM | TEAD2 TAZ HTRF combined: Max % Inhibition [3]: 63.0% | EC50 [3]: 10 nM | TEAD2 YAP50-100 HTRF combined: Max % Inhibition (TEAD2 YAP50-100): 62.0% | EC50 (TEAD2 YAP50-100): 10 nM | TEAD3 YAP50-100 HTRF combined: Max % Inhibition (TEAD3 YAP50-100): 62.0% | EC50 (TEAD3 YAP50-100): 80 nM | TEAD1 YAP50-100 HTRF combined: Max % Inhibition (TEAD1 YAP50-100): 71.0% | EC50 (TEAD1 YAP50-100): 30 nM | TEAD4 YAP50-100 HTRF combined: Max % Inhibition (TEAD4 YAP50-100): 52.0% | EC50 (TEAD4 YAP50-100): 30 nM | TEAD4 TAZ HTRF combined: Max % Inhibition [4]: 56.0% | EC50 [4]: 30 nM
SMILES: Cc1ccnc(-c2nn3c(=O)cc(-c4ccc(C5CCCCC5)cc4)[nH]c3c2C(=O)N2CC(CF)C2)n1 [Compound 9, 5-(4-Cyclohexylphenyl)-3-(3-(fluoromethyl)azetidine-1-carbonyl)-2-(4-methylpyrimidin-2-yl)pyrazolo[1,5-a]pyrimidin-7(4H)-one]

TEAD3 TAZ HTRF combined: Max % Inhibition [1]: 52.5% | EC50 [1]: 80 nM | TEAD1 TAZ HTRF combined: Max % Inhibition [2]: 74.0% | EC50 [2]: 60 nM | TEAD2 TAZ HTRF combined: Max % Inhibition [3]: 67.5% | EC50 [3]: 10 nM | TEAD2 YAP50-100 HTRF combined: Max % Inhibition (TEAD2 YAP50-100): 62.5% | EC50 (TEAD2 YAP50-100): 10 nM | TEAD3 YAP50-100 HTRF combined: Max % Inhibition (TEAD3 YAP50-100): 61.0% | EC50 (TEAD3 YAP50-100): 90 nM | TEAD1 YAP50-100 HTRF combined: Max % Inhibition (TEAD1 YAP50-100): 73.0% | EC50 (TEAD1 YAP50-100): 30 nM | TEAD4 YAP50-100 HTRF combined: Max % Inhibition (TEAD4 YAP50-100): 50.0% | EC50 (TEAD4 YAP50-100): 60 nM | TEAD4 TAZ HTRF combined: Max % Inhibition [4]: 53.5% | EC50 [4]: 50 nM
SMILES: COc1ccnc(-c2nn3c(=O)cc(-c4ccc(C5CCCCC5)cc4)[nH]c3c2C(=O)N2CC(CF)C2)n1 [Compound 14, 5-(4-Cyclohexylphenyl)-3-(3-(fluoromethyl)azetidine-1-carbonyl)-2-(4-methoxypyrimidin-2-yl)pyrazolo[1,5-a]pyrimidin-7(4H)-one]
